Laboratory results as given in ChEMBL document CHEMBL1821595, “Covalent stabilization of a small molecule-RNA complex” (Bioorg Med Chem Lett, 2011).
Active and inactive are the calls of the source. No cut-off for these calls is given here.

What was measured:
Format in all cases: nucleic-acid assay
[1] = tested on: Nucleic Acid; assay: Binding affinity to thiol-bearing RNA1 aptamer assessed as RNA1-compound conjugate formation at 1 uM after 1 hr by MALDI-MS analysis in presence of non-complementary DNA and 1 uM iodoacetamide
[2] = tested on: Nucleic Acid; assay: Covalent binding affinity to thiol-bearing RNA1 aptamer assessed as rate constant at 1 uM by MALDI-MS analysis
[3] = tested on: Nucleic Acid; assay: Binding affinity to thiol-bearing RNA1 aptamer assessed as RNA1-compound conjugate formation at 1 uM by MALDI-MS 123 analysis
[4] = tested on: Nucleic Acid; assay: Binding affinity to RNA1-DNA hybrid assessed as inhibition of RNA1/DNA hybrid-compound conjugate formation at 1 uM after 1 hr by MALDI-MS analysis
[5] = tested on: Nucleic Acid; assay: Binding affinity to thiol-bearing RNA1 aptamer assessed as RNA1-compound conjugate formation at 1 uM after 1 hr by MALDI-MS analysis in presence of non-complementary DNA
[6] = tested on: Nucleic Acid; assay: Binding affinity to thiol-bearing RNA2 aptamer assessed as RNA2-compound conjugate formation at 1 uM by MALDI-MS 123 analysis
[7] = tested on: Nucleic Acid; assay: Binding affinity to thiol-bearing RNA2 aptamer assessed as RNA2-compound conjugate formation at 1 uM after 1 hr by MALDI-MS analysis in presence of complementary DNA
[8] = tested on: Nucleic Acid; assay: Binding affinity to thiol-bearing RNA1 aptamer assessed as RNA1-compound conjugate formation at 1 uM after 1 hr by MALDI-MS analysis in presence of complementary DNA

Activity [1] [%] | K [2] [×10⁻² /min] | Activity [3] | Activity [4] | Activity [5] | Activity [6] | Activity [7] | Activity [8] | Structure (SMILES)
90 | 5.5 | 90% | inactive | inactive | Active |  |  | N=C(N)NCCC[C@H](NC(=O)c1cccc2c(Nc3ccc(CNC(=O)CBr)cc3)cc(-c3ccccc3)nc12)C(N)=O
 |  | Active |  |  | Active | inactive | inactive | CC(C)[C@H](NC(=O)[C@H](CO)NC(=O)CBr)C(=O)NCc1ccc(Nc2cc(-c3ccccc3)nc3c(C(=O)N[C@@H](CCCNC(=N)N)C(N)=O)cccc23)cc1
 |  | Active |  |  | Active | inactive | inactive | CC(C)[C@H](NC(=O)CBr)C(=O)NCc1ccc(Nc2cc(-c3ccccc3)nc3c(C(=O)N[C@@H](CCCNC(=N)N)C(N)=O)cccc23)cc1
